Results taken from US8129367B2, “Compounds for the treatment of Hepatitis C” (Bristol-Myers Squibb Company, priority 2007, dated 2012).

How the values were obtained:
HCV NS5B = biological target: T1, HCV NS5B (Hepatitis C virus genotype 1b, UniProt Q9WMX2); assay: HCV NS5B RdRp enzyme assay; type: biochemical; settings: HCV NS5B RdRp genotype 1b enzyme
T1 construct: The protein was expressed with an 18 amino acid C-terminal truncation to enhance the solubility; made in house; host or cells: E. coli BL21(DE3)
Protocol: HCV NS5B RdRp cloning, expression, and purification. The cDNA encoding the NS5B protein of HCV, genotype 1b, was cloned into the pET21a expression vector. The protein was expressed with an 18 amino acid C-terminal truncation to enhance the solubility. The E. coli competent cell line BL21(DE3) was used for expression of the protein. Cultures were grown at 37° C. for ˜4 hours until the cultures reached an optical density of 2.0 at 600 nm. The cultures were cooled to 20° C. and induced with 1 mM IPTG. Fresh ampicillin was added to a final concentration of 50 μg/ml and the cells were grown overnight at 20° C.
Cell pellets (3 L) were lysed for purification to yield 15-24 mgs of purified NS5B. The lysis buffer consisted of 20 mM Tris-HCl, pH 7.4, 500 mM NaCl, 0.5% triton X-100, 1 mM DTT, 1 mM EDTA, 20% glycerol, 0.5 mg/ml lysozyme, 10 mM MgCl2, 15 ug/ml deoxyribonuclease I, and Complete™ protease inhibitor tablets (Roche). After addition of the lysis buffer, frozen cell pellets were resuspended using a tissue homogenizer. To reduce the viscosity of the sample, aliquots of the lysate were sonicated on ice using a microtip attached to a Branson sonicator. The sonicated lysate was centrifuged at 100,000×g for 1 hr at 4° C. and filtered through a 0.2 μm filter unit (Corning).
The protein was purified using two sequential chromatography steps: Heparin sepharose CL-6B and polyU sepharose 4B (Pharmacia). The chromatography buffers were identical to the lysis buffer but contained no lysozyme, deoxyribonuclease I, MgCl2 or protease inhibitor and the NaCl concentration of the buffer was adjusted according to the requirements for charging the protein onto the column. Each column was eluted with a NaCl gradient which varied in length from 5-50 column volumes depending on the column type. After the final chromatography step, the resulting purity of the enzyme is >90% based on SDS-PAGE analysis. The enzyme was aliquoted and stored at −80° C.
Standard HCV NS5B RdRp enzyme assay. HCV RdRp genotype 1b assays were run in a final volume of 60 μl in 96 well plates (Corning 3600). The assay buffer is composed of 20 mM Hepes, pH 7.5, 2.5 mM KCl, 2.5 mM MgCl2, 1 mM DTT, 1.6 U RNAse inhibitor (Promega N2515), 0.01 mg/ml BSA (Sigma B6917), and 2% glycerol. All compounds were serially diluted (3-fold) in DMSO and diluted further in water such that the final concentration of DMSO in the assay was 2%. HCV RdRp genotype 1b enzyme was used at a final concentration of 28 nM. A polyA template was used at 6 nM, and a biotinylated oligo-dT12 primer was used at 180 nM final concentration. Template was obtained commercially (Amersham 27-4110). Biotinylated primer was prepared by Sigma Genosys. 3H-UTP was used at 0.6 μCi (0.29 μM total UTP). Reactions were initiated by the addition of enzyme, incubated at 30° C. for 60 min, and stopped by adding 25 μl of 50 mM EDTA containing SPA beads (4 μg/μl, Amersham RPNQ 0007). Plates were read on a Packard Top Count NXT after >1 hr incubation at room temperature.
Modified HCV NS5B RdRp enzyme assay. A modified enzyme assay was performed essentially as described for the standard enzyme assay except for the following: The biotinylated oligo dT12 primer was precaptured on streptavidin-coated SPA beads by mixing primer and beads in assay buffer and incubating at room temperature for one hour. Unbound primer was removed after centrifugation. The primer-bound beads were resuspended in 20 mM Hepes buffer, pH 7.5 and used in the assay at final concentrations of 20 nM primer and 0.67 μg/μl beads. Order of addition in the assay: enzyme (1.75 nM) was added to diluted compound followed by the addition of a mixture of template (0.36 nM), 3H-UTP (0.6 μCi, 0.29 μM), and primer-bound beads, to initiate the reaction; concentrations given are final. Reactions were allowed to proceed for 4 hours at 30° C.
IC50 values for compounds were determined using seven different [I]. […]

HCV replicon cells = assay: HCV replicon FRET / luciferase assay; type: cell-based; settings: Hepatitis C virus; 50% reduction in FRET or luciferase activity in HCV replicon cells
Protocol: FRET Assay Preparation. The HCV FRET screening assay was performed in 96-well cell culture plates. The FRET peptide (Anaspec, Inc.) (Taliani et al., Anal. Biochem. 1996, 240, 60-67) contains a fluorescence donor, EDANS, near one end of the peptide and an acceptor, DABCYL, near the other end. The fluorescence of the peptide is quenched by […] resonance energy transfer (RET) between the donor and the acceptor, but as the NS3 protease cleaves the peptide the products are released from RET quenching and the fluorescence of the donor becomes apparent. The assay reagent was made as follows: 5× cell Luciferase cell culture lysis reagent from Promega (#E153A) diluted to 1× with dH2O, NaCl added to 150 mM final, the FRET peptide diluted to 20 μM final from a 2 mM stock.
To prepare plates, HCV replicon cells, with or without a Renilla luciferase reporter gene, were trypsinized and plated in a 96-well plate with titrated test compounds added in columns 3 through 12; columns 1 and 2 contained a control compound (HCV control inhibitor), and the bottom row contained cells with DMSO only. The plates were then placed in a CO2 incubator at 37° C.
Assays. Subsequent to addition of the test compounds described above (FRET Assay Preparation), at various times the plate was removed and Alamar blue solution (Trek Diagnostics, #00-100) was added to measure cellular toxicity. After reading in a Cytoflour 4000 instrument (PE Biosystems), plates were rinsed with PBS and then used for FRET assay by the addition of 30 ul of the FRET peptide assay reagent described above (FRET Assay Preparation) per well. The plate was then placed into the Cytoflour 4000 instrument which had been set to 340 excite/490 emission, automatic mode for up to 20 cycles and the plate read in a kinetic mode. Typically, the signal to noise using an endpoint analysis after the reads was at least three-fold. Alternatively, after Alamar blue reading, plates were rinsed with PBS, then used for luciferase assay using the Promega Dual-Glo Luciferase Assay System or the Promega EnduRen Live Cell Substrate assay.
Compound analysis was performed by quantification of the relative HCV replicon inhibition and the relative cytotoxicity values. To calculate cytoxicity values, the average Alamar Blue fluorescence signals from the control wells were set as 100% non-toxic. The individual signals in each of the compound test wells were then divided by the average control signal and multiplied by 100% to determine […]. To calculate the HCV replicon inhibition values, an average background value was obtained from the two wells containing the highest amount of HCV control inhibitor at the end of the assay period. These numbers were similar to those obtained from naïve Huh-7 cells. The background numbers were then subtracted from the average signal obtained from the control wells and this number was used as 100% activity. The individual signals in each of the compound test wells were then divided by the averaged control values after background subtraction and multiplied by 100% to determine percent activity. EC50 values were calculated as the concentration which caused a 50% reduction in FRET or luciferase activity. The two numbers generated for the compound plate, percent cytoxicity and percent activity, were used to determine compounds of interest for further analysis.

T1 sequence (Q9WMX2 2420-2992): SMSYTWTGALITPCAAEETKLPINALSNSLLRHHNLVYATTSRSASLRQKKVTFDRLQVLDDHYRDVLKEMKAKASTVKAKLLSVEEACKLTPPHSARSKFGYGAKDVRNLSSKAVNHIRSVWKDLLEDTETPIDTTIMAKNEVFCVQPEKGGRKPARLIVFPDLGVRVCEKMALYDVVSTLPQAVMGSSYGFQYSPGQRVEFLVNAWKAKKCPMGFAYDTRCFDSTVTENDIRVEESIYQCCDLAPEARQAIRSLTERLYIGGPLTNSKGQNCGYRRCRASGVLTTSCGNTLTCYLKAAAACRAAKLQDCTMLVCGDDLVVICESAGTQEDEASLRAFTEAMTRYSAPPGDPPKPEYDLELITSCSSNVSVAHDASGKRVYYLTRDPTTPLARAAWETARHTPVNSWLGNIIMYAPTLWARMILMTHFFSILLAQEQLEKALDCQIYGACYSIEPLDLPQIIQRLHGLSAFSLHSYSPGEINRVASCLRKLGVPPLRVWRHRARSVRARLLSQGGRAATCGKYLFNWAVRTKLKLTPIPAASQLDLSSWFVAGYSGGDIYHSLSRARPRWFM

Row | SMILES | IC50 (HCV NS5B) [µM] | EC50 (HCV replicon cells) [µM]
1 | COc1ccc2c(c1)[C@@H]1C[C@]1(C(=O)N1C3CCC1CN(C)C3)Cn1c-2c(C2CCCCC2)c2ccc(C(=O)NS(=O)(=O)CC3CCCO3)cc21 (stereo partly drawn) | 0.0042 to 0.5 | 0.0042 to 0.5
2 | COc1ccc2c(c1)C1CC1(C(=O)N1C3CCC1CN(C)C3)Cn1c-2c(C2CCCCC2)c2ccc(C(=O)NS(=O)(=O)c3ccco3)cc21 (stereo not drawn) | 0.0042 to 0.5 | 0.0042 to 0.5
3 | CCC1(S(=O)(=O)NC(=O)c2ccc3c(C4CCCCC4)c4n(c3c2)CC2(C(=O)N3C5CCC3CN(C)C5)CC2c2cc(OC)ccc2-4)CC1 (stereo not drawn) | 0.0042 to 0.5 | 0.0042 to 0.5
4 | COc1ccc2c(c1)C1CC1(C(=O)N1C3CCC1CN(C)C3)Cn1c-2c(C2CCCCC2)c2ccc(C(=O)NC(C)(C)C(=O)N(C)C)cc21 (stereo not drawn) | 0.0042 to 0.5 | 0.0042 to 0.5
5 | C=C(C)S(=O)(=O)NC(=O)c1ccc2c(C3CCCCC3)c3n(c2c1)CC1(C(=O)N2C4CCC2CN(C)C4)CC1c1cc(OC)ccc1-3 (stereo not drawn) | 0.0042 to 0.5 | 0.0042 to 0.5
6 | COc1ccc2c(c1)C1CC1(C(=O)N1C3CCC1CN(C)C3)Cn1c-2c(C2CCCCC2)c2ccc(C(=O)NS(=O)(=O)c3sc(C)nc3C)cc21 (stereo not drawn) | 0.0042 to 0.5 | 0.0042 to 0.5
7 | COc1ccc2c(c1)C1CC1(C(=O)N1C3CCC1CN(C)C3)Cn1c-2c(C2CCCCC2)c2ccc(C(=O)NS(=O)(=O)C3(C(=O)c4ccccc4)CC3)cc21 (stereo not drawn) | 0.0042 to 0.5 | 0.0042 to 0.5
8 | COc1ccc2c(c1)C1CC1(C(=O)N1C3CCC1CN(C)C3)Cn1c-2c(C2CCCCC2)c2ccc(C(=O)NS(=O)(=O)C3CCOCC3)cc21 (stereo not drawn) | 0.0042 to 0.5 | 0.0042 to 0.5
9 | COc1ccc2c(c1)C1CC1(C(=O)N1C3CCC1CN(C)C3)Cn1c-2c(C2CCCCC2)c2ccc(C(=O)NS(=O)(=O)C3(CC4CC4)CC3)cc21 (stereo not drawn) | 0.0042 to 0.5 | 0.0042 to 0.5
10 | COc1ccc2c(c1)C1CC1(C(=O)N1C3CCC1CN(C)C3)Cn1c-2c(C2CCCCC2)c2ccc(C(=O)NS(=O)(=O)c3ccccc3C#N)cc21 (stereo not drawn) | 0.0042 to 0.5 | 0.0042 to 0.5
11 | COc1ccc2c(c1)C1CC1(C(=O)N1C3CCC1CN(C)C3)Cn1c-2c(C2CCCCC2)c2ccc(C(=O)NS(=O)(=O)c3ccc(C)cn3)cc21 (stereo not drawn) | 0.0042 to 0.5 | 0.0042 to 0.5
12 | COc1ccc2c(c1)C1CC1(C(=O)N1C3CCC1CN(C)C3)Cn1c-2c(C2CCCCC2)c2ccc(C(=O)NS(=O)(=O)c3ncccn3)cc21 (stereo not drawn) | 0.0042 to 0.5 | 0.0042 to 0.5
13 | COc1ccc2c(c1)C1CC1(C(=O)N1C3CCC1CN(C)C3)Cn1c-2c(C2CCCCC2)c2ccc(C(=O)NS(=O)(=O)Cc3cc(Cl)cc(Cl)c3)cc21 (stereo not drawn) | 0.0042 to 0.5 | 0.0042 to 0.5
14 | COc1ccc2c(c1)C1CC1(C(=O)N1C3CCC1CN(C)C3)Cn1c-2c(C2CCCCC2)c2ccc(C(=O)NS(=O)(=O)N3CCCO3)cc21 (stereo not drawn) | 0.0042 to 0.5 | < 0.07
15 | COc1ccc2c(c1)C1CC1(C(=O)N1C3CCC1CN(C)C3)Cn1c-2c(C2CCCCC2)c2ccc(C(=O)NS(=O)(=O)C3([Si](C)(C)C)CC3)cc21 (stereo not drawn) | 0.0042 to 0.5 | 0.0042 to 0.5
16 | COc1ccc2c(c1)C1CC1(C(=O)N1C3CCC1CN(C)C3)Cn1c-2c(C2CCCCC2)c2ccc(C(=O)NS(=O)(=O)c3cnccc3Cl)cc21 (stereo not drawn) | 0.0042 to 0.5 | 0.0042 to 0.5
17 | COCCS(=O)(=O)NC(=O)c1ccc2c(C3CCCCC3)c3n(c2c1)C[C@@]1(C(=O)N2C4CCC2CN(C)C4)C[C@H]1c1cc(OC)ccc1-3 | 0.0042 to 0.5 | 0.0042 to 0.5
18 | COCCS(=O)(=O)NC(=O)c1ccc2c(C3CCCCC3)c3n(c2c1)CC1(C(=O)N2C4CCC2CN(C)C4)CC1c1cc(OC)ccc1-3 (stereo not drawn) | 0.0042 to 0.5 | 0.0042 to 0.5
19 | COc1ccc2c(c1)C1CC1(C(=O)N1C3CCC1CN(C)C3)Cn1c-2c(C2CCCCC2)c2ccc(C(=O)NS(=O)(=O)CC3CCCO3)cc21 (stereo not drawn) | 0.0042 to 0.5 | 0.0042 to 0.5
20 | COc1ccc2c(c1)C1CC1(C(=O)N1C3CCC1CN(C)C3)Cn1c-2c(C2CCCCC2)c2ccc(C(=O)NS(=O)(=O)c3ccc(C)cc3OC)cc21 (stereo not drawn) | 0.0042 to 0.5 | 0.0042 to 0.5
21 | COc1ccc2c(c1)C1CC1(C(=O)N1C3CCC1CN(C)C3)Cn1c-2c(C2CCCCC2)c2ccc(C(=O)NS(=O)(=O)c3cn(C)cn3)cc21 (stereo not drawn) | 0.0042 to 0.5 | 0.0042 to 0.5
22 | COc1ccc2c(c1)C1CC1(C(=O)N1C3CCC1CN(C)C3)Cn1c-2c(C2CCCCC2)c2ccc(C(=O)NS(=O)(=O)C=C(C)C)cc21 (stereo not drawn) | 0.0042 to 0.5 | 0.0042 to 0.5
23 | CCC#CCC1(S(=O)(=O)NC(=O)c2ccc3c(C4CCCCC4)c4n(c3c2)CC2(C(=O)N3C5CCC3CN(C)C5)CC2c2cc(OC)ccc2-4)CC1 (stereo not drawn) | 0.0042 to 0.5 | 0.0042 to 0.5
24 | COc1ccc2c(c1)C1CC1(C(=O)N1C3CCC1CN(C)C3)Cn1c-2c(C2CCCCC2)c2ccc(C(=O)NS(=O)(=O)Cc3ccccc3)cc21 (stereo not drawn) | 0.0042 to 0.5 | 0.0042 to 0.5
25 | COc1ccc2c(c1)C1CC1(C(=O)N1C3CCC1CN(C)C3)Cn1c-2c(C2CCCCC2)c2ccc(C(=O)NS(=O)(=O)Cc3cccc(Cl)c3)cc21 (stereo not drawn) | 0.0042 to 0.5 | 0.0042 to 0.5
26 | COc1ccc2c(c1)C1CC1(C(=O)N1C3CCC1CN(C)C3)Cn1c-2c(C2CCCCC2)c2ccc(C(=O)NS(=O)(=O)c3cccc4cccnc34)cc21 (stereo not drawn) | 0.0042 to 0.5 | 0.0042 to 0.5
27 | COc1ccc2c(c1)C1CC1(C(=O)N1C3CCC1CN(C)C3)Cn1c-2c(C2CCCCC2)c2ccc(C(=O)NS(=O)(=O)Cc3ccccn3)cc21 (stereo not drawn) | 0.0042 to 0.5 | 0.0042 to 0.5
